Data as given in patent US11603372B2, “Compounds and therapeutic uses thereof” (VioGen Biosciences, LLC, priority 2017, dated 2023).

target: PIKfyve (Homo sapiens (Human), UniProt Q9Y2I7); assay: Kinase binding assay (kinase-tagged T7 phage, affinity beads, qPCR readout), Kd determination; conditions: 11-point 3-fold compound dilution series
Protocol: Kinase assays. For most assays, kinase-tagged T7 phage strains were prepared in an E. coli host derived from the BL21 strain. E. coli were grown to log-phase and infected with T7 phage and incubated with shaking at 32° C. until lysis. The lysates were centrifuged and filtered to remove cell debris. The remaining kinases were produced in HEK-293 cells and subsequently tagged with DNA for qPCR detection. Streptavidin-coated magnetic beads were treated with biotinylated small molecule ligands for 30 minutes at room temperature to generate affinity resins for kinase assays. The liganded beads were blocked with excess biotin and washed with blocking buffer (SeaBlock (Pierce), 1% BSA, 0.05% Tween 20, 1 mM DTT) to remove unbound ligand and to reduce non-specific binding. Binding reactions were assembled by combining kinases, liganded affinity beads, and test compounds in 1× binding buffer (20% SeaBlock, 0.17×PBS, 0.05% Tween 20, 6 mM DTT). Test compounds were prepared as 111× stocks in 100% DMSO. Kds were determined using an 11-point 3-fold compound dilution series with three DMSO control points. All compounds for Kd measurements are distributed by acoustic transfer (non-contact dispensing) in 100% DMSO. The compounds were then diluted directly into the assays such that the final concentration of DMSO was 0.9%. All reactions performed in polypropylene 384-well plate. Each was a final volume of 0.02 ml. The assay plates were incubated at room temperature with shaking for 1 hour and the affinity beads were washed with wash buffer (1×PBS, 0.05% Tween 20). The beads were then re-suspended in elution buffer (1×PBS, 0.05% Tween 20, 0.5 μM non-biotinylated affinity ligand) and incubated at room temperature with shaking for 30 minutes. The kinase concentration in the eluates was measured by qPCR.
An 11-point 3-fold serial dilution of each test compound was prepared in 100% DMSO at 100× final test concentration and subsequently diluted to 1× in the assay (final DMSO concentration=1%). Most Kds were determined using a compound top concentration=30,000 nM. If the initial Kd determined was <0.5 nM (the lowest concentration tested), the measurement was repeated with a serial dilution starting at a lower top concentration.

Chain of PIKfyve (Q9Y2I7 whole entry): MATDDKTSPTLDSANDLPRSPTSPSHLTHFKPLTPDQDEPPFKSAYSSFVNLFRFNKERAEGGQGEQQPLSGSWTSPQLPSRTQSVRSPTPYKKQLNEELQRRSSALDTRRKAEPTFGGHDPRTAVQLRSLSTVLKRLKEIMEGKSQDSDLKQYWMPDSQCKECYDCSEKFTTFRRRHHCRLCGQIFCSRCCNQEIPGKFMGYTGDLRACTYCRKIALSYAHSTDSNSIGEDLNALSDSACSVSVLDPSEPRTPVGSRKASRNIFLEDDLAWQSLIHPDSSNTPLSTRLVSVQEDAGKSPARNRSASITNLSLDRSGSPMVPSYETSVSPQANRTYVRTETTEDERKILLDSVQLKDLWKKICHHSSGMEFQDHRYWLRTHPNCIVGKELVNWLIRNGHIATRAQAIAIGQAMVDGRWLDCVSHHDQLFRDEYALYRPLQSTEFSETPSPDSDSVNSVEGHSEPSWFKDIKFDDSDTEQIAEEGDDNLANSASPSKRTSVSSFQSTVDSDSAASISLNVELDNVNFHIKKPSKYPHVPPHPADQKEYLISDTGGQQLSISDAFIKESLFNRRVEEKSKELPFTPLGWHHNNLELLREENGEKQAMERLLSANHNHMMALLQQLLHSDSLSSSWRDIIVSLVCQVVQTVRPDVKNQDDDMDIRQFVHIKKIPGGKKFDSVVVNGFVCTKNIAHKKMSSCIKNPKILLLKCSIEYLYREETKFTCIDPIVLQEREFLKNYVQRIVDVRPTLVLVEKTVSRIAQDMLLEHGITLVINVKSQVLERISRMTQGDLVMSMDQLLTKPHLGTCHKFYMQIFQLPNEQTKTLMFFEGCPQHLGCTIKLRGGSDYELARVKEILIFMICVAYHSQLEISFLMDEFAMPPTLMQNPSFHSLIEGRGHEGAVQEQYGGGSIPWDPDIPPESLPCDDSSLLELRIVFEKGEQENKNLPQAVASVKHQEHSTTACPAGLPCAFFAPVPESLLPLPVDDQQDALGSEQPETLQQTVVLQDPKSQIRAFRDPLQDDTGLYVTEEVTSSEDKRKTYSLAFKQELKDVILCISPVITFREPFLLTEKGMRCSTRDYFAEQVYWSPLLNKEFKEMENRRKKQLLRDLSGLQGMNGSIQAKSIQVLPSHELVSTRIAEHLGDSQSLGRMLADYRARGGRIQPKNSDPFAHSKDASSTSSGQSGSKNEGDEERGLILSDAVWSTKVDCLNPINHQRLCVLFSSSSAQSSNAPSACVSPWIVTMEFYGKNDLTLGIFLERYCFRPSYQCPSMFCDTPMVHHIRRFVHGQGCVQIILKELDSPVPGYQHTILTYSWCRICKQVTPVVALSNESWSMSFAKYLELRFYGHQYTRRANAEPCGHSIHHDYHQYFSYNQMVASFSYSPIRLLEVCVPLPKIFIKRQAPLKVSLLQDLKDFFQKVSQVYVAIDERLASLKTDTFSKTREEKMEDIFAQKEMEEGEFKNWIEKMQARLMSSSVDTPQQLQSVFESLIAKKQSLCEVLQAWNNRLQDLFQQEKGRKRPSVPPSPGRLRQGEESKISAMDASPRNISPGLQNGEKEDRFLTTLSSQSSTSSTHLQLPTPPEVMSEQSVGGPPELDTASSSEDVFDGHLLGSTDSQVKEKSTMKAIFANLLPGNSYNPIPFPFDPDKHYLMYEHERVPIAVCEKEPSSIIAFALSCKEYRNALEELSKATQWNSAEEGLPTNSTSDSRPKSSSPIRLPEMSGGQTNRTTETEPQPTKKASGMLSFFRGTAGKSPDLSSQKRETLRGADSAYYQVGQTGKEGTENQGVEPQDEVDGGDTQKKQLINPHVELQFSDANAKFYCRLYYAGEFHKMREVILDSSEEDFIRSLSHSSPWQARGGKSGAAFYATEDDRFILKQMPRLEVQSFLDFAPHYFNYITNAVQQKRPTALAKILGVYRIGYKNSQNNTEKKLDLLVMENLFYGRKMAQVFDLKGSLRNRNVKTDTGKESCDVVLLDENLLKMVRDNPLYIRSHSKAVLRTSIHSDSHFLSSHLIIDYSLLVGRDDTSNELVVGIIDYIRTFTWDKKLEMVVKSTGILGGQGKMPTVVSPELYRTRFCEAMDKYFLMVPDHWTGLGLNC

| Kd [nM] | Compound |
| --- | --- |
| 1 to 10 | Cc1cccc(/C=N/Nc2nc(N3CCOCC3)c3sc(-c4cnco4)cc3n2)c1 [Example 9, 4-Morpholino-N-[(E)-m-tolylmethyleneamino]-6-oxazol-5-yl-thieno[3,2-d]pyrimidin-2-amine] |
| ≤ 1 | Cc1cccc(/C=N/Nc2nc(N3CCOCC3)c3sc(-c4cnn(C)c4)cc3n2)c1 [Example 262, 6-(1-methylpyrazol-4-yl)-4-morpholino-N-[(E)-m-tolylmethyleneamino]thieno[3,2-d]pyrimidin-2-amine] |
| ≤ 1 | Cc1cccc(/C=N/Nc2nc(N3CCOCC3)c3sc(C(=O)Nc4cccnc4)cc3n2)c1 [Example 4, 4-morpholino-2-[(2E)-2-(m-tolylmethylene)hydrazino]-N-(3-pyridyl)thieno[3,2-d]pyrimidine-6-carboxamide] |
| 1 to 10 | Cc1cccc(/C=N/Nc2nc(N3CCOCC3)c3cc(-c4c(C)noc4C)sc3n2)c1 [Example 267, 6-(3,5-dimethylisoxazol-4-yl)-4-morpholino-N-[(E)-m-tolylmethyleneamino]thieno[2,3-d]pyrimidin-2-amine] |
| 1 to 10 | Cc1cccc(/C=N/Nc2nc(N3CCOCC3)c3cc(-c4c(C)n[nH]c4C)sc3n2)c1 [Example 268, 6-(3,5-dimethyl-1H-pyrazol-4-yl)-4-morpholino-N-[(E)-m-tolylmethyleneamino]thieno[2,3-d]pyrimidin-2-amine] |
| 1 to 10 | Cc1cccc(/C=N/Nc2nc(N3CCOCC3)c3sc(C(=O)NC4CNC4)cc3n2)c1 [Example 22, N-(azetidin-3-yl)-4-morpholino-2-[(2E)-2-(m-tolylmethylene)hydrazino]thieno[3,2-d]pyrimidine-6-carboxamide] |
| ≤ 1 | Cc1cccc(/C=N/Nc2nc(N3CCOCC3)c3sc(-c4cccnc4)cc3n2)c1 [Example 261, 4-morpholino-N-[(E)-m-tolylmethyleneamino]-6-(3-pyridyl)thieno[3,2-d]pyrimidin-2-amine] |
| 10 to 60 | Clc1cccc(/C=N/Nc2nc(N3CCOCC3)c3cc(-c4cnco4)sc3n2)c1 [Example 14, N-[(E)-(3-chlorophenyl)methyleneamino]-4-morpholino-6-oxazol-5-yl-thieno[2,3-d]pyrimidin-2-amine] |
| ≤ 1 | Cc1cccc(/C=N/Nc2nc(N3CCOCC3)c3cc(-c4cnco4)sc3n2)c1 [Example 12, 4-morpholino-N-[(E)-m-tolylmethyleneamino]-6-oxazol-5-yl-thieno[2,3-d]pyrimidin-2-amine] |
| ≤ 1 | Cc1cccc(/C=N/Nc2nc(N3CCOCC3)c3sc(-c4c(C)noc4C)cc3n2)c1 [Example 264, 6-(3,5-dimethylisoxazol-4-yl)-4-morpholino-N-[(E)-m-tolylmethyleneamino]thieno[3,2-d]pyrimidin-2-amine] |
| ≤ 1 | Cc1cccc(/C=N/Nc2nc(N3CCOCC3)c3sc(C(=O)NC4COC4)cc3n2)c1 [Example 7, 4-morpholino-2-[(2E)-2-(m-tolylmethylene)hydrazino]-N-(oxetan-3-yl)thieno[3,2-d]pyrimidine-6-carboxamide] |
| ≤ 1 | Cc1cccc(/C=N/Nc2nc(N3CCOCC3)c3sc(-c4c(C)n[nH]c4C)cc3n2)c1 [Example 263, 6-(3,5-dimethyl-1H-pyrazol-4-yl)-4-morpholino-N-[(E)-m-tolylmethyleneamino]thieno[3,2-d]pyrimidin-2-amine] |
| 1 to 10 | Cc1cccc(/C=N/Nc2nc(N3CCOCC3)c3sccc3n2)c1 [Example 3, 4-morpholino-N-[(E)-m-tolylmethyleneamino]thieno[3,2-d]pyrimidin-2-amine] |
| ≤ 1 | Cc1cccc(/C=N/Nc2nc(N3CCOCC3)c3sc(-c4ccncc4)cc3n2)c1 [Example 2, 4-morpholino-N-[(E)-m-tolylmethyleneamino]-6-(4-pyridyl)thieno[3,2-d]pyrimidin-2-amine] |
| 10 to 60 | Cc1cccc(/C=N/Nc2nc(N3CCOCC3)c3ccsc3n2)c1 [Example 10, 4-morpholino-N-[(E)-m-tolylmethyleneamino]thieno[2,3-d]pyrimidin-2-amine] |
| 1 to 10 | Cc1cccc(/C=N/Nc2nc(N3CCOCC3)c3cc(-c4ccncc4)sc3n2)c1 [Example 11, 4-morpholino-N-[(E)-m-tolylmethyleneamino]-6-(4-pyridyl)thieno[2,3-d]pyrimidin-2-amine] |
| 1 to 10 | Cc1cccc(/C=N/Nc2nc(N3CCOCC3)c3sc(-c4ccccc4)cc3n2)c1 [Example 1, 4-morpholino-N-[(E)-m-tolylmethyleneamino]-6-phenyl-thieno[3,2-d]pyrimidin-2-amine] |
| 10 to 60 | Cc1cccc(CCNc2nc(N3CCOCC3)c3sc(-c4ccncc4)cc3n2)c1 [Example 255, 4-morpholino-N-[2-(m-tolyl)ethyl]-6-(4-pyridyl)thieno[3,2-d]pyrimidin-2-amine] |
| 1 to 10 | Cc1cccc(/C=N/Nc2nc(N3CCOCC3)c3sc(C(=O)Nc4ccncc4)cc3n2)c1 [Example 5, 4-morpholino-2-[(2E)-2-(m-tolylmethylene)hydrazino]-N-(4-pyridyl)thieno[3,2-d]pyrimidine-6-carboxamide] |
